Key:
[1] = Rheological characteristics of the oil based mud (Fann SR 12/Model 35 rheometer); assay type: physicochemical; settings: 2.5 g additive in oil based mud, measuring temp. 50° C.
Method: (§1) An oil based well treatment fluid was prepared as follows: the indicated amounts of the following ingredients are mixed using a Silverson Mixer (model L4RT) in the following order: synthetic paraffin, filtration control agent (a polymer: preferably Adapta by Halliburton), Ca(OH)2, Amidoamin (Terradril EM 1122), Water, CaCl2*2H2O, BaSO4, ball clay.
(§2) Next, either an ester of the invention (for example azelaic ricinoleate or an ester based on a C21 dimer acid and ricinoleic acid) or a conventional viscosifier (C36 dimer acid) is added to the mixture and to obtain the final emulsion a standard Hamilton Beach mixer was used, following manufacturer's instructions.
(§3) Next, the rheological characteristics including the fluids-plastic viscosity (PV), yield point (YP) and gel strength (gels 10″/10′) after 10 seconds and 10 minutes were determined with a Fann SR 12/Model 35 rheometer (Fann). In addition to the rheological characteristics, the electrical stability was tested using a Model 23D Electrical Stability Tester, following manufacturer's instructions, in accordance with API recommended practice 13B-2, December 1991.
(§4) The well treatment fluid was also tested in a Roller Oven for the indicated times at the indicated temperatures (after hot rolling=AHR and before hot rolling=BHR as indicated in the Table). As roller oven, a Baroid Laboratory Roller Oven was used, following manufacturer's instructions.

seawater bacteria = assay: Inhibition to seawater bacteria (Marine BODIS test); settings: natural seawater
Method: This method uses natural seawater (salinity 34%-37%) with added mineral nutrients (8.5 g/l KH2PO4, 21.7 g/l K2HPO4, 29.92 g/l Na2HPO4.2H2O, 0.5 g/l NH4Cl, 31.84 CaCl2, 22.5 g/l MgSO4.7H2O, 0.25 g/l FeCl3.6H2O, 0.4 g/l EDTA) and no inoculum was added in addition to the microorganisms already present in the seawater. The test vessels were closed glass bottles with a known volume of aqueous test mixture (66.6%) and air (33.3%). They were shaken continuously to assure steady state oxygen partitioning between the aqueous and gaseous phase. The degradation was followed by weekly measurements of the biochemical oxygen demand (BOD) in the aqueous phase for a 28-day period. The test vessels were re-aerated and resealed after measurement. The total oxygen uptake in the test flasks was calculated from the measured oxygen concentration divided by the saturation value at normal conditions and multiplied with the total oxygen content originally present in the aqueous and gaseous phases.
Three replicates were used for each test condition: test substance, controls, and insoluble reference substance. The total oxygen capacity of each test vessel was 26.64 mg oxygen. […]

[2] = Electrical stability of the oil based mud (Model 23D Electrical Stability Tester, API 13B-2); assay type: physicochemical; settings: 2.5 g additive in oil based mud, measuring temp. 50° C.
Method: as §1, §2, §3, §4

[3] = AHR 16 h (System 4: 15 h) at 150 °F
[4] = AHR (after hot rolling) 16 h (System 4: 15 h) at 150 °F

Compound | 3 rpm [1, 3] [skt] | 6 rpm [1, 3] [skt] | 100 rpm [1, 3] [skt] | 200 rpm [1, 3] [skt] | 300 rpm [1, 3] [skt] | 600 rpm [1, 3] [skt] | Gels 10′ (gel strength after 10 minutes) [1, 3] [lb/100 ft^2] | Gels 10″ (gel strength after 10 seconds) [1, 3] [lb/100 ft^2] | PV (plastic viscosity) [1, 3] [cP] | YP (yield point) [1, 3] [lb/100 ft^2] | 3 rpm ([1]; BHR) [skt] | 6 rpm ([1]; BHR) [skt] | 100 rpm ([1]; BHR) [skt] | 200 rpm ([1]; BHR) [skt] | 300 rpm ([1]; BHR) [skt] | 600 rpm ([1]; BHR) [skt] | Gels 10′ (gel strength after 10 minutes) ([1]; BHR) [lb/100 ft^2] | Gels 10″ (gel strength after 10 seconds) ([1]; BHR) [lb/100 ft^2] | PV (plastic viscosity) ([1]; BHR) [cP] | YP (yield point) ([1]; BHR) [lb/100 ft^2] | also measured
CCCCCCC(CC=CCCCCCCCC(=O)O)OC(=O)CCCCCCCC(=O)O (stereo not shown) [Azelaic ricinoleate, azelaic ricinoleate] | 24 | 24 | 30 | 37 | 44 | 59 | 25 | 22 | 15 | 29 | 25 | 25 | 31 | 38 | 44 | 59 | 25 | 20 | 15 | 29 | inhibition to seawater bacteria (seawater bacteria): −14%; Electrical stab. [2, 4]: 802 V; Electrical stab. ([2]; BHR (before hot rolling)): 760 V
C36 dimer acid | 10 | 12 | 23 | 29 | 35 | 49 | 15 | 11 | 14 | 21 | 15 | 15 | 25 | 32 | 39 | 52 | 19 | 16 | 13 | 26 | inhibition to seawater bacteria (seawater bacteria): −1%; Electrical stab. [2, 4]: 830 V; Electrical stab. ([2]; BHR (before hot rolling)): 795 V
